From US20220340597A1, “HEXAHYDRO-1H-PYRAZINO[1,2-A]PYRAZINE COMPOUNDS FOR THE TREATMENT OF AUTOIMMUNE DISEASE” (Hoffmann-La Roche Inc., priority 2019, published 2022)

Target: T1, human TLR9 (Homo sapiens, UniProt Q9NR96)
T1 construct: host or cells: HEK293 (HEK-Blue hTLR9)
T1 sequence (Q9NR96 26-1032): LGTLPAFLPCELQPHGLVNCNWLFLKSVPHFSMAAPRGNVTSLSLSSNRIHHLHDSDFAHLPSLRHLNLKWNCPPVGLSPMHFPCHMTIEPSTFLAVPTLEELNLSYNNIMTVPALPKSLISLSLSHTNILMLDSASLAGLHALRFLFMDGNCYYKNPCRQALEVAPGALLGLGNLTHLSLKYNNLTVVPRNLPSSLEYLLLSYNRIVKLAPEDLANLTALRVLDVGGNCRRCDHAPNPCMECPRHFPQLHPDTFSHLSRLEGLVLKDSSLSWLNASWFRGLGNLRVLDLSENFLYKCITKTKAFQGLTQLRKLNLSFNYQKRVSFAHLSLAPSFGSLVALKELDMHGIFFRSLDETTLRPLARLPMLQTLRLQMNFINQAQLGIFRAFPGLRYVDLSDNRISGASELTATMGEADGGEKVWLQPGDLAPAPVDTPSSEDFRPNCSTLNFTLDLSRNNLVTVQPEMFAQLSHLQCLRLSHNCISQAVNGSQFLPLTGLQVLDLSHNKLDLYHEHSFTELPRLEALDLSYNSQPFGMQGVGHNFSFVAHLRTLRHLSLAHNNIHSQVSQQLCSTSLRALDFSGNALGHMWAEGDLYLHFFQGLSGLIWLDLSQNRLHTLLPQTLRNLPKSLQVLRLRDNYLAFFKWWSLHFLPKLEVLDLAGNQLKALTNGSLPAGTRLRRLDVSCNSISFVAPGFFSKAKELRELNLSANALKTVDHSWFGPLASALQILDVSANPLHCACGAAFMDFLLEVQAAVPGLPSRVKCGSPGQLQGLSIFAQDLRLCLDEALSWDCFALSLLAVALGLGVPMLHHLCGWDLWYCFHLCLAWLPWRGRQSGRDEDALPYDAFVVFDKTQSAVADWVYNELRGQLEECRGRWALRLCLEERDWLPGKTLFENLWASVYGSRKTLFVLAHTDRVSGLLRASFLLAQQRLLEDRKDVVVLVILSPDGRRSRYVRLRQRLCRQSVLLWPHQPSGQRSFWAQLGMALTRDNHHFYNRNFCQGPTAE
Assay: HEK293-Blue-hTLR-9 cells assay
Format: cell-based
Details: HEK293-Blue-hTLR9 cells, ODN2006 stimulation, 20 hrs, SEAP reporter; read-out: HEK/hTLR9 IC50

| SMILES | IC50 [nM] |
| --- | --- |
| [2H]c1ccc2c(N3C[C@@H]4CN(Cc5ccc(N6CC[C@@](C)(N)C6)nc5C)CCN4[C@H](C)C3)ccc(C#N)c2n1 [Example 81, 5-[(4R,9aS)-8-[[6-[(3R)-3-amino-3-methyl-pyrrolidin-1-yl]-2-methyl-3-pyridyl]methyl]-4-methyl-3,4,6,7,9,9a-hexahydro-1H-pyrazino[1,2-a]pyrazin-2-yl]-2-deuterio-quinoline-8-carbonitrile] | < 32 |
| C[C@@H]1CN(c2ccc(C#N)c3ncccc23)C[C@@H]2CN(Cc3ccc4c(c3)CNCC4)CCN21 (relative stereo) [Example 1] | 58 |
| C[C@@H]1CN(c2ccc(C#N)c3ncccc23)C[C@@H]2CN(Cc3ccnc(N4CCNCC4)c3)CCN21 (relative stereo) [Example 3] | 110 |
| [2H]c1ccc2c(N3C[C@@H]4CN(Cc5ccc(N[C@H]6CNC[C@H]6F)nc5C)CCN4[C@H](C)C3)ccc(C#N)c2n1 [Example 82, 5-[(4R,9aS)-8-[[6-[[(3S,4R)-4-fluoropyrrolidin-3-yl]amino]-2-methyl-3-pyridyl]methyl]-4-methyl-3,4,6,7,9,9a-hexahydro-JH-pyrazino[1,2-a]pyrazin-2-yl]-2-deuterio-quinoline-8-carbonitrile] | 41 |
| [2H]c1ccc2c(N3C[C@@H]4CN(CCc5ccc(N6CC[C@@](C)(N)C6)nc5)CCN4[C@H](C)C3)ccc(C#N)c2n1 [Example 84, 5-[(4R,9aS)-8-[2-[6-[(3R)-3-amino-3-methyl-pyrrolidin-1-yl]-3-pyridyl]ethyl]-4-methyl-3,4,6,7,9,9a-hexahydro-1H-pyrazino[1,2-a]pyrazin-2-yl]-2-deuterio-quinoline-8-carbonitrile] | < 32 |
| [2H]c1ccc2c(N3C[C@@H]4CN(CCc5ccnc(N6C[C@@H](N)[C@@H](F)C6)c5)CCN4[C@H](C)C3)ccc(C#N)c2n1 [Example 89, 5-[(4R,9aS)-8-[2-[2-[(3R,4S)-3-amino-4-fluoro-pyrrolidin-1-yl]-4-pyridyl]ethyl]-4-methyl-3,4,6,7,9,9a-hexahydro-1H-pyrazino[1,2-a]pyrazin-2-yl]-2-deuterio-quinoline-8-carbonitrile] | 47 |
| Cc1nc(N2CCN[C@H](C)C2)ccc1CN1CCN2[C@@H](C1)CN(c1ccc(C#N)c3ncccc13)C[C@H]2C [Example 86, 5-[(4R,9aS)-4-methyl-8-[[2-methyl-6-[(3R)-3-methylpiperazin-1-yl]-3-pyridyl]methyl]-3,4,6,7,9,9a-hexahydro-1H-pyrazino[1,2-a]pyrazin-2-yl]quinoline-8-carbonitrile] | 62 |

Other lines, results leading:

| IC50 [nM] | SMILES |
| --- | --- |
| 58 | [2H]c1ccc2c(N3C[C@@H]4CN(Cc5ccc(N6C[C@H]7NCCO[C@@H]7C6)nc5C)CCN4[C@H](C)C3)ccc(C#N)c2n1 [Example 98, 5-[(4R,9aS)-8-[[6-[(4aR,7aR)-3,4,4a,5,7,7a-hexahydro-2H-pyrrolo[3,4-b][1,4]oxazin-6-yl]-2-methyl-3-pyridyl]methyl]-4-methyl-3,4,6,7,9,9a-hexahydro-1H-pyrazino[1,2-a]pyrazin-2-yl]-2-deuterio-quinoline-8-carbonitrile] |
| 173 | [2H]c1ccc2c(N3C[C@@H]4CN(c5ncc(N6C[C@H]7NCCO[C@@H]7C6)cc5C)CCN4[C@H](C)C3)ccc(C#N)c2n1 [Example 100, 5-[(4R,9aR)-8-[5-[(4aR,7aR)-3,4,4a,5,7,7a-hexahydro-2H-pyrrolo[3,4-b][1,4]oxazin-6-yl]-3-methyl-2-pyridyl]-4-methyl-3,4,6,7,9,9a-hexahydro-1H-pyrazino[1,2-a]pyrazin-2-yl]-2-deuterio-quinoline-8-carbonitrile] |
| 189 | [2H]c1ccc2c(N3C[C@@H]4CN(c5ncc(N6C[C@@H](N)[C@@H](OC)C6)cc5C)CCN4[C@H](C)C3)ccc(C#N)c2n1 [Example 96, 5-[(4R,9aR)-8-[5-[(3R,4S)-3-amino-4-methoxy-pyrrolidin-1-yl]-3-methyl-2-pyridyl]-4-methyl-3,4,6,7,9,9a-hexahydro-1H-pyrazino[1,2-a]pyrazin-2-yl]-2-deuterio-quinoline-8-carbonitrile] |
| 142 | [2H]c1ccc2c(N3C[C@@H]4CN(c5ncc(N6C[C@@H]7C[C@H]6CN7)cc5C)CCN4[C@H](C)C3)ccc(C#N)c2n1 [Example 95, 5-[(4R,9aR)-8-[5-[(1S,4S)-2,5-diazabicyclo[2.2.1]heptan-2-yl]-3-methyl-2-pyridyl]-4-methyl-3,4,6,7,9,9a-hexahydro-1H-pyrazino[1,2-a]pyrazin-2-yl]-2-deuterio-quinoline-8-carbonitrile] |
| 34 | [2H]c1ccc2c(N3C[C@@H]4CN(Cc5ccc(N6C[C@@H]7C[C@H]6CN7)nc5C)CCN4[C@H](C)C3)ccc(C#N)c2n1 [Example 92, 5-[(4R,9aS)-8-[[6-[(1S,4S)-2,5-diazabicyclo[2.2.1]heptan-2-yl]-2-methyl-3-pyridyl]methyl]-4-methyl-3,4,6,7,9,9a-hexahydro-1H-pyrazino[1,2-a]pyrazin-2-yl]-2-deuterio-quinoline-8-carbonitrile] |
| 52 | [2H]c1ccc2c(N3C[C@@H]4CN(Cc5cnc(N6CCNCC6)cc5C)CCN4[C@H](C)C3)ccc(C#N)c2n1 [Example 87, 5-[(4R,9aS)-4-methyl-8-[(4-methyl-6-piperazin-1-yl-3-pyridyl)methyl]-3,4,6,7,9,9a-hexahydro-1H-pyrazino[1,2-a]pyrazin-2-yl]-2-deuterio-quinoline-8-carbonitrile] |
| 155 | [2H]c1ccc2c(N3C[C@@H]4CN(c5ncc(N6C[C@@H](N)[C@H](OC)C6)cc5C)CCN4[C@H](C)C3)ccc(C#N)c2n1 [Example 99, 5-[(4R,9aR)-8-[5-[(3R,4R)-3-amino-4-methoxy-pyrrolidin-1-yl]-3-methyl-2-pyridyl]-4-methyl-3,4,6,7,9,9a-hexahydro-1H-pyrazino[1,2-a]pyrazin-2-yl]-2-deuterio-quinoline-8-carbonitrile] |
